Assays:
[1] = Metabolism in liver microsomal preparations; format: in vitro ADME, mice, rats, rabbits, dogs, monkeys and humans; settings: in vitro
Excerpt: Metabolism of ulipristal acetate was investigated in vitro in liver microsomal preparations from mice, rats, rabbits, dogs, monkeys and humans.

[2] = used within 72 hours of unprotected intercourse; cited from earlier work

CC(=O)O[C@]1(C(C)=O)CC[C@H]2[C@@H]3CCC4=CC(=O)CCC4=C3[C@@H](c3ccc(N(C)C)cc3)C[C@@]21C [ulipristal acetate, 17α-acetoxy-11β-[4-N,N-dimethylamino-phenyl)-19-norpregna-4,9-diene-3,20-dione]
Metabolites produced in liver microsomes across species ([1]; liver microsomes from mice, rats, rabbits, dogs, monkeys and humans, proportions varied between species): All species produced the same two major metabolites
Metabolite unique to humans ([1]; liver microsomes, humans compared with the other species): No metabolite was detected which was unique to humans
Efficacy for preventing pregnancy compared with levonorgestrel [2]: as efficacious as levonorgestrel

From patent US20120115802A1, “Method for using ulipristal acetate with cytochrome isozyme modulators” (LABORATOIRE HRA PHARMA, priority 2010, published 2012)
